Laboratory results reported in patent US11366102B2, “Spectographic metabolite-signature for identifying a subject's susceptibility to drugs” (Olaris, Inc., priority 2018, dated 2022).

Key:
ER+/HER2− metastatic BC = assay: Retrospective study of metastatic BC patients treated with CDK4/6 inhibitors, classified R or NR by change in sum of diameters of target tumors after 6 months, with overall survival; type: in vivo, human; conditions: for Patients within the NR group / Number of non-responders (NR): at least a 20% increase in the sum of diameters of target tumors after 6 months; for Patients within the NR group: 10 NR of 24 patients; for Number of non-responders (NR) / Number of responders (R): samples separated by inhibitor; for Number of responders (R): at least a 30% decrease in the sum of diameters of target tumors after 6 months of treatment
Source text: Here we describe a retrospective study analyzing plasma-based metabolites from a baseline (BL) sample and after 2-months (2M) of treatment of 24 women with ER+/HER2-− metastatic BC treated with CDK4/6 inhibitors, palbociclib or ribociclib.

[1] = system: adenoid cystic carcinomas of the salivary gland; conditions: despite increased expression of c-kit; cited from earlier work
CYP2A6 = target: T1, CYP2A6 (Homo sapiens, UniProt P11509); conditions: off-target effect; cited from earlier work
T1 sequence (P11509 1-494): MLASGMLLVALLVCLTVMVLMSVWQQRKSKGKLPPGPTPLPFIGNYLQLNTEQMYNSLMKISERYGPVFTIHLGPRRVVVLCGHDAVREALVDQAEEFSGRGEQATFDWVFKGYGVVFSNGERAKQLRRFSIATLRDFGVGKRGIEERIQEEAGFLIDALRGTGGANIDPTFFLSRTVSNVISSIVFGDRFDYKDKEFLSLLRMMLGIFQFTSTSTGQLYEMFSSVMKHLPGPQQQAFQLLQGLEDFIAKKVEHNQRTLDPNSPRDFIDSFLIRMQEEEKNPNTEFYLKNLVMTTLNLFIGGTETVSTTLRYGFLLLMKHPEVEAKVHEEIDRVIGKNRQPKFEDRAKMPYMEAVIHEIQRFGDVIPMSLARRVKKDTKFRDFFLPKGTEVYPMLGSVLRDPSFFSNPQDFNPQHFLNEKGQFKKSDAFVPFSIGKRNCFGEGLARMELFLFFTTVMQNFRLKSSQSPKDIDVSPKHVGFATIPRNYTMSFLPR

CYP2C19 = CYP2C19 (Homo sapiens, UniProt P33261); conditions: off-target effect; cited from earlier work
Chain of CYP2C19 (P33261 whole entry): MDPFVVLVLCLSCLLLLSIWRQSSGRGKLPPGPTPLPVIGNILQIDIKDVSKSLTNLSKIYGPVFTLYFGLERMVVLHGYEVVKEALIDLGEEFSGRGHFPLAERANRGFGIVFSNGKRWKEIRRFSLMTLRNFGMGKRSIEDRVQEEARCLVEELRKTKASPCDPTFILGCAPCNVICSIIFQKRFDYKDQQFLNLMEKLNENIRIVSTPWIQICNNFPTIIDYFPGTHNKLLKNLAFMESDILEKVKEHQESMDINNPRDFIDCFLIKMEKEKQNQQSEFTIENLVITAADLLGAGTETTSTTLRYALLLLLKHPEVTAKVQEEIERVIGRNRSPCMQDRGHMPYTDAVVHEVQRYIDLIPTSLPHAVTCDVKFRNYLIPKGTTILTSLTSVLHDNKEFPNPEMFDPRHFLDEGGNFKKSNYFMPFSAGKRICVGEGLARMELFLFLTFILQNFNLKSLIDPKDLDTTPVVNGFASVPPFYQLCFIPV

Row | SMILES | Patients within the NR group (ER+/HER2− metastatic BC) | Number of non-responders (NR) (ER+/HER2− metastatic BC) | Number of responders (R) (ER+/HER2− metastatic BC) | Effect on adenoid cystic carcinomas of the salivary gland [1] | Inhibition of CYP2A6 (CYP2A6) | Inhibition of CYP2C19 (CYP2C19)
1 | CC(=O)c1c(C)c2cnc(Nc3ccc(N4CCNCC4)cn3)nc2n(C2CCCC2)c1=O [palbociclib] | 3 patients | 3 | 7 | – | – | –
2 | Cc1ccc(NC(=O)c2ccc(CN3CCN(C)CC3)cc2)cc1Nc1nccc(-c2cccnc2)n1 [imatinib] | – | – | – | no effect | – | –
3 | CN(C)C(=O)c1cc2cnc(Nc3ccc(N4CCNCC4)cn3)nc2n1C1CCCC1 [ribociclib] | 7 patients | 6 | 8 | – | – | –
4 | N#Cc1ccc(C(c2ccc(C#N)cc2)n2cncn2)cc1 [letrozole] | – | – | – | – | inhibits | inhibits
